For six compounds, Ki and EC50 results are on record in US9617310B2 (priority 2013, dated 2017).

In one assay the target is T1, NS3 genotype 3a protease (UniProt Q81258).
T1 construct: Purified NS3 protease domain (amino acids 1-181) of the genotype 1b and 3a virus were generated as above; fused on or other part: N-terminal hexahistidine tag with an rTEV protease cleavage site (vector p28-N6H-Tev-NS3(181)3)
T1 sequence (Q81258 1033-1663): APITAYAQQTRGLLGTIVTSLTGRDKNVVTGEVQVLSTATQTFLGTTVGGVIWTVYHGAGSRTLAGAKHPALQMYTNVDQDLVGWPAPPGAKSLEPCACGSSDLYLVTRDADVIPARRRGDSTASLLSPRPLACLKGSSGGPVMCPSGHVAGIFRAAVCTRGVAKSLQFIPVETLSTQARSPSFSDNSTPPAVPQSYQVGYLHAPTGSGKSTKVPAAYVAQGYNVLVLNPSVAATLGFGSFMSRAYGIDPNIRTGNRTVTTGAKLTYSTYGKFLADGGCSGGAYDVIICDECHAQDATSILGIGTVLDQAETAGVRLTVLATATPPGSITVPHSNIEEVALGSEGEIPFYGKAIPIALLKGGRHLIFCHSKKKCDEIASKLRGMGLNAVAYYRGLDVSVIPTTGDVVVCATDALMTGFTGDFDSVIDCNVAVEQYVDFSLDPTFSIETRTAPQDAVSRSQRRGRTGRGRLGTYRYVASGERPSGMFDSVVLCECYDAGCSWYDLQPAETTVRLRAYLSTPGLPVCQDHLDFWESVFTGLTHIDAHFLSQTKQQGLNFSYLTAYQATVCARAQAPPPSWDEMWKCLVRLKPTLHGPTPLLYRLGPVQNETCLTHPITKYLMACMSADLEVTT
Nature of the assay: Ki determination, NS3 protease genotype 3a (fluorogenic depsipeptide substrate). The following applies: NS3 protease domain genotype 3a, NS4A peptide. It is filed as biochemical, hepatitis C virus. The text has this: (§1) Ki Determination for Genotypes 1b and 3a NS3 Protease.
(§2) Purified NS3 protease domain (amino acids 1-181) of the genotype 1b and 3a virus were generated as above. The internally quenched fluorogenic depsipeptide substrate Ac-DED(Edans)-EEAbuψ[COO]ASK(Dabcyl)-NH2 and a synthetic peptide containing the hydrophobic core residues of the NS4A protein cofactor ([…]; NS4A peptide) were obtained from Anaspec, Inc. (San Jose, Calif.). Other chemicals and biochemicals were of reagent grade or better and were purchased from standard suppliers.
(§3) Reactions were run at room temperature in buffer consisting of 50 mM HEPES, 40% glycerol, 0.05% Triton X-100, 10 mM DTT, and 10% DMSO. The final assay solutions contained 50 pM NS3 genotype 1b protease or 200 pM genotype 3a protease, 20 μM NS4A peptide, and 4 μM substrate (genotype 1b) or 2 μM substrate (genotype 3a). Inhibitor concentrations varied from 100 nM to 5 pM in 3-fold dilutions, and no-inhibitor controls were included.
(§4) Compound dilutions were made in DMSO at 20× final concentration. Reaction mixtures were prepared in 96-well assay plates. A solution of enzyme and NS4A peptide in assay buffer (25 μL volume with both reagents at 4× final concentration) was mixed with 45 μL assay buffer and 5 μL of either inhibitor or DMSO, and pre-incubated at room temperature for 1 hour. The reaction was started by addition of 25 μL substrate solution at 4× final concentration. Plates were mixed vigorously for 5-10 seconds and reactions were allowed to proceed for 90 minutes. Fluorescence was measured every 30 s between 90 and 120 minutes reaction time using a Tecan InfiniTe M1000 or PerkinElmer Envision multimode plate reader with an excitation wavelength of 340 nm and an emission wavelength of 490 nm.
(§5) Rates were calculated from the progress curves at steady state, in the time frame of 90-120 minutes after addition of substrate. To determine the Ki, rates were plotted as a function of inhibitor concentration, and the data were fit with equation 1 (Morrison, J. F., Biochimica et Biophysica Acta 1969, 185, 269-286) to calculate Ki^app using GraphPad Prism 5. Active fraction of enzyme was determined by active site titration with known potent inhibitors. Ki was calculated from Ki^app/(1+[[S]/Km]).

For assay [1], the system named is genotype 1b stable HCV replicon (Con1) in Huh-7-derived cells. Nature of the assay: Stable subgenomic HCV replicon, genotype 1b, Renilla luciferase. The following applies: Hepatitis C virus, stable replicon genotype 1b, 72 h, read-out: EC50 1B RLUC. The format is cell-based. The method, then:
Antiviral potency (EC50) was determined in both stable subgenomic HCV replicon cell lines and transient-transfected HCV replicon cells. The term half maximal effective concentration (EC50) refers to the concentration of a drug which induces a response halfway between the baseline and maximum after the exposure time specified below.
Stable subgenomic HCV replicons for genotype 1a, 1b, 2a, 3a, and 4a were established in Huh-7-derived cells as described by Lohmann et al (Lohmann V, Korner F, Koch J, et al Replication of subgenomic hepatitis C virus RNAs in a hepatoma cell line. Science 1999; 285:119-3). Each stable cell line contains a bicistronic HCV replicon that encodes a humanized Renilla luciferase (hRLuc) reporter gene fused to a selectable neomycin-resistance gene, followed by an EMCV IRES and the NS3-NS5B coding region of HCV. […] Luciferase activity was measured as a marker for intracellular HCV replication levels.
The genotype 1a stable replicon was derived from the H77 HCV strain and contained adaptive mutations P1496L and S2204I. The genotype 1b stable replicon was derived from the Con1 HCV strain and contained adaptive mutations E1202G, T1280I, and K1846T. […] The genotype 3a stable replicon was derived from the S52 HCV strain and contained adaptive mutations P1121 L, A1198T and S2210I (equivalent to S2204I in genotype 1). The genotype 4a stable replicon was derived from the ED43 HCV strain and contained adaptive mutations Q1691R and S2204I. All replicon cell lines were propagated in Huh-7-derived cells and maintained in Dulbecco's modified Eagle's Medium (DMEM) supplemented with 10% fetal bovine serum (FBS) and 0.5 mg/ml G418.
To perform EC50 assays, cells from each HCV replicon were dispensed into 384-well plates. Compounds were dissolved in DMSO at a concentration of 10 mM and diluted in DMSO using an automated pipetting instrument. Three-fold serially diluted compounds were directly added to the cells using an automated instrument. DMSO was used as a negative (solvent; no inhibition) control, and a combination of three HCV inhibitors including a protease inhibitor; an NS5A inhibitor and a nucleoside inhibitor was used at concentrations >100×EC50 as a positive control (100% inhibition). Seventy-two hours later, cells were lysed and Renilla luciferase activity were quantified as recommended by the manufacturer (Promega-Madison, Wis.). Non-linear regression was performed to calculate […], values.

The target of the next assay is T2, NS3 genotype 1b protease (Hepatitis C virus genotype 1b, UniProt Q9WMX2, E1202G).
T2 construct: Purified NS3 protease domain (amino acids 1-181) of the genotype 1b and 3a virus were generated as above; K3 hexahistidine tag (N); rTEV protease cleavage site (N); made in house; host or cells: E. coli BL21AI
Nature of the assay: Ki determination, NS3 protease genotype 1b (fluorogenic depsipeptide substrate). It is filed as biochemical. The following applies: NS3 protease domain genotype 1b, NS4A peptide.
Excerpt: as §1, §2, §3, §4, §5

SMILES strings stand for the structures.

T2 sequence (Q9WMX2 1027-1207 E1202G, other chains not shown): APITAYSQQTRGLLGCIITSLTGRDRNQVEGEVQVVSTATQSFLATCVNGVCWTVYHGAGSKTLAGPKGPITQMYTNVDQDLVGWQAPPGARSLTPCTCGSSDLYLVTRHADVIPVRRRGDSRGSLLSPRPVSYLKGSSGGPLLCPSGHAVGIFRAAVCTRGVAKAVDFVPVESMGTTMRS

For `COc1ccc2nc3c(nc2c1)O[C@@H]1C[C@@H](C(=O)N[C@]2(C(=O)NS(=O)(=O)C4CC4)C[C@H]2C(F)F)N(C1)C(=O)[C@H](C(C)(C)C)NC(=O)O[C@@H]1C[C@@H]2C[C@@H]2[C@H]1CCCCC3(F)F` (racemic) [Example 9, (1aS,2aR,6S,9S,11R,23aR,23bS)-6-tert-butyl-N-[(1R,2R)-1-[(cyclopropylsulfonyl)carbamoyl]-2-(difluoromethyl)cyclopropyl]-19,19-difluoro-15-methoxy-4,7-dioxo-1a,2,2a,4,5,6,7,10,11,19,20,21,22,23,23a,23b-hexadecahydro-1H,9H-8,11-methanocyclopropa[4′,5′]cyclopenta[1′,2′:18,19][1,10,3,6]dioxadiazacyclononadecino[11,12-b]quinoxaline-9-carboxamide], the Ki at NS3 genotype 3a protease and at NS3 genotype 1b protease was 20 pM throughout. For the same compound, the EC50 in assay [1] turned out to be 1500 pM.
As for `CC(C)(C)[C@@H]1NC(=O)O[C@@H]2C[C@@H]3C[C@@H]3[C@H]2CCCCC(F)(F)c2nc3cc(F)c(F)cc3nc2O[C@@H]2C[C@@H](C(=O)N[C@]3(C(=O)NS(=O)(=O)C4CC4)C[C@H]3C(F)F)N(C2)C1=O` (racemic) [Example 15, (1aS,2aR,6S,9S,11R,23aR,23bS)-6-tert-butyl-N-[(1R,2R)-1-[(cyclopropylsulfonyl)carbamoyl]-2-(difluoromethyl)cyclopropyl]-15,16,19,19-tetrafluoro-4,7-dioxo-1a,2,2a,4,5,6,7,10,11,19,20,21,22,23,23a,23b-hexadecahydro-1H,9H-8,11-methanocyclopropa[4′,5′]cyclopenta[1′,2′:18,19][1,10,3,6]dioxadiazacyclononadecino[11,12-b]quinoxaline-9-carboxamide], the Ki was 50 pM at NS3 genotype 3a protease and 30 pM at NS3 genotype 1b protease. In addition, the EC50 in assay [1] is 3400 pM.
On the same counts, the results for `COc1ccc2nc3c(nc2c1)O[C@@H]1C[C@@H](C(=O)N[C@]2(C(=O)NS(=O)(=O)C4CC4)C[C@H]2C(F)F)N(C1)C(=O)[C@H](C(C)(C)C)NC(=O)O[C@@H]1C[C@@H]2C[C@@H]2[C@H]1CCCCC3` [Example 1, (1aS,2aR,6S,9S,11R,23aR,23bS)-6-tert-butyl-N-[(1R,2R)-1-[(cyclopropylsulfonyl)carbamoyl]-2-(difluoromethyl)cyclopropyl]-15-methoxy-4,7-dioxo-1a,2,2a,4,5,6,7,10,11,19,20,21,22,23,23a,23b-hexadecahydro-1H,9H-8,11-methanocyclopropa[4′,5′]cyclopenta[1′,2′:18,19][1,10,3,6]dioxadiazacyclononadecino[11,12-b]quinoxaline-9-carboxamide] are 30 pM, 20 pM and 990 pM.
In the same order, the values of `COc1ccc2nc3c(nc2c1)O[C@@H]1C[C@@H](C(=O)N[C@]2(C(=O)NS(=O)(=O)C4(C)CC4)C[C@H]2C(F)F)N(C1)C(=O)[C@H](C(C)(C)C)NC(=O)O[C@@H]1C[C@@H]2C[C@@H]2[C@H]1CCCCC3` [Example 2, (1aS,2aR,6S,9S,11R,23aR,23bS)-6-tert-butyl-N-[(1R,2R)-2-(difluoromethyl)-1-{[(1-methylcyclopropyl)sulfonyl]carbamoyl}cyclopropyl]-15-methoxy-4,7-dioxo-1a,2,2a,4,5,6,7,10,11,19,20,21,22,23,23a,23b-hexadecahydro-1H,9H-8,11-methanocyclopropa[4′,5′]cyclopenta[1′,2′18,19][1,10,3,6]dioxadiazacyclononadecino[11,12-b]quinoxaline-9-carboxamide] are 40 pM, 20 pM and 1000 pM.
On the same counts, the results for `COc1ccc2nc3c(nc2c1)O[C@@H]1C[C@@H](C(=O)N[C@]2(C(=O)NS(=O)(=O)C4CC4)C[C@H]2CC(F)F)N(C1)C(=O)[C@H](C(C)(C)C)NC(=O)O[C@@H]1C[C@@H]2C[C@@H]2[C@H]1CCCCC3` [Example 3, (1aS,2aR,6S,9S,11R,23aR,23bS)-6-tert-butyl-N-[(1R,2S)-1-[(cyclopropylsulfonyl)carbamoyl]-2-(2,2-difluoroethyl)cyclopropyl]-15-methoxy-4,7-dioxo-1a,2,2a,4,5,6,7,10,11,19,20,21,22,23,23a,23b-hexadecahydro-1H,9H-8,11-methanocyclopropa[4′,5′]cyclopenta[1′,2′:18,19][1,10,3,6]dioxadiazacyclononadecino[11,12-b]quinoxaline-9-carboxamide] are 210 pM, 30 pM and 3200 pM.
For the compound `COc1ccc2nc3c(nc2c1)O[C@@H]1C[C@@H](C(=O)N[C@]2(C(=O)NS(=O)(=O)C4CC4)C[C@H]2C(F)F)N(C1)C(=O)[C@H](C(C)(C)C)NC(=O)O[C@@H]1[C@H]2CC[C@H](C2)[C@H]1CCCCC3` [Example 4, (1R,4S,4aR,8S,11S,13R,25aR)-8-tert-butyl-N-[(1R,2R)-1-[(cyclopropylsulfonyl)carbamoyl]-2-(difluoromethyl)cyclopropyl]-17-methoxy-6,9-dioxo-2,3,4,4a,6,7,8,9,12,13,21,22,23,24,25,25a-hexadecahydro-1H,11H-1, 4:10,13-dimethanoquinoxalino[2,3-k][1,10,3,6]benzodioxadiazacyclononadecine-11-carboxamide], the Ki at NS3 genotype 3a protease came out at 210 pM; at NS3 genotype 1b protease, 20 pM. Besides, the EC50 in assay [1] worked out at 2600 pM.
